Source: PubChem BioAssay AID1902 (Broad Institute, 2009)
Active and inactive are the calls of the source.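 The calls were made as follows: active = EC50 no more than a set limit of log units above the highest dose; inactive = the rest.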

Biological target: S. pyogenes SKKanGAS, kanamycin survival, BacTiterGlo, 6 h
Assay: S. pyogenes SKKanGAS kanamycin growth inhibitors – SKKanGAS strain, luminescence, dose confirmation, streptokinase promoter inhibitor project, dose response (AID 1902);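 also: lower survival reflects blocked streptokinase promoter driving kanamycin resistance gene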

`O/N=C(\c1ccc(Cl)cc1Cl)c1ncc(C(F)(F)F)cc1Cl` was tested, and the EC50 was 2740 nM.

For `Fc1cc(F)c(C2SCCN2C(=S)Nc2cccc(C(F)(F)F)c2)c(F)c1` (configuration not stated), the EC50 was 8260 nM.

`Nc1nc2ccccc2n1/N=C/c1ccc(-c2ccccc2)o1` was tested, and the EC50 was 1960 nM.

Work on `CCc1ccc(-c2ccc3nnc(SCC(N)=O)n3n2)cc1` yielded an EC50 of 1660 nM.

In the case of `Cc1ccccc1NC1=C/C(=N\S(=O)(=O)c2cccs2)c2ccccc2C1=O`, the EC50 is reported as 1440 nM.

`CC(C)c1ccc(OCC(=O)NNC(=S)NC(=O)C2CC2)cc1` showed an EC50 of 797 nM.

Work on `N#Cc1ccc(Cl)cc1NC(=O)CSc1nc2nc(-c3cccs3)cc(C(F)(F)F)c2c(=O)[nH]1` yielded an EC50 of 4970 nM.

`CCCCCn1c(CN2CCN(c3cc(Cl)ccc3C)CC2)nc2c1c(=O)[nH]c(=O)n2C` showed an EC50 of 2500 nM.

Work on `O=C(COc1ccc(F)cc1Cl)Nc1nc(-c2ccccn2)cs1` yielded an EC50 of 1120 nM.

`Clc1ccc(-[n+]2c(-c3cccc(Br)c3)[nH]c3nc4ccccc4nc32)cc1` was tested, and the EC50 was 1670 nM.

In the case of `CCCC(=O)NC(c1ccc(C(C)C)cc1)c1ccc2cccnc2c1O` (configuration not stated), the EC50 is reported as 5540 nM.

For `O=C(/C=C/c1ccc(Br)cc1)NC(=S)NNC(=O)c1ccco1`, the EC50 was 391 nM.

Work on `O=C(Nc1ncc(Cc2ccccc2)s1)c1cccs1` yielded an EC50 of 1900 nM.

With `N/C(=N\N=C/c1ccc(Br)cc1)N/N=C\c1ccc(Br)cc1` the EC50 was 3800 nM.

With `CCOC(=O)c1cnc(-n2nc(C)cc2C)nc1NCc1ccccc1` the EC50 was 4140 nM.

Work on `Cc1ccc(C(=O)c2c(C)oc3c2C(=O)C(=O)c2ccccc2-3)cc1` yielded an EC50 of 801 nM.

In the case of `N#CC1=C(N)OC2=C(CCc3ccccc32)C1c1ccccc1Cl` (configuration not stated), the EC50 is reported as 3820 nM.

For `c1ccc(CCNc2nc(-c3ccccn3)nc3ccccc23)cc1`, the EC50 was 884 nM.

In the case of `CC(/C=C1\SC(=O)N(CC(=O)Nc2ccc(O)cc2)C1=O)=C\c1ccccc1`, the EC50 is reported as 8020 nM.

`COC(=O)c1cc(C(=O)Nc2nc3ccccc3[nH]2)cc([N+](=O)[O-])c1` gave an EC50 of 8850 nM.

Compound `Cc1cc(/C=C2\SC(=S)NC2=O)c(C)n1-c1cccc(O)c1` has an EC50 of 3060 nM.

In the case of `CC1=C(C#N)c2nc(N)c(C#N)c(C)c2/C1=C\c1ccc(C)cc1`, the EC50 is reported as 6180 nM.

`C=C1CCC2C(C)(C)[C@@H](O)CC[C@@]2(C)[C@@H]1COc1ccc2ccc(=O)oc2c1` (some centres not stated) was tested, and the EC50 was 11600 nM.

With `Cc1onc(-c2ccccc2)c1C(=O)NNC(=S)NC(=O)c1ccc2c(c1)OCO2` the EC50 was 589 nM.

With `COc1ccc(NC(=S)NC(NC(=O)c2ccc(Cl)cc2Cl)C(Cl)(Cl)Cl)c([N+](=O)[O-])c1` (configuration not stated) the EC50 was 1150 nM.

Work on `COc1cnc(-c2ccccn2)nc1Sc1ccc(Cl)cc1` yielded an EC50 of 4960 nM.

`CCOc1cccc(N(C(=O)c2ccco2)C(C(=O)NC2CCCC2)c2cccnc2)c1` (configuration not stated) was tested, and the EC50 was > 15000 nM (inactive).

In the case of `CCCOc1ccc(C(=O)NC(=S)NNC(=O)c2c(-c3ccccc3)noc2C)cc1`, the EC50 is reported as 274 nM.

`O=S(=O)(N[C@H]1C[C@@H](NS(=O)(=O)OCC(Cl)(Cl)Cl)C2CCCCC21)OCC(Cl)(Cl)Cl` (some centres not stated) was tested, and the EC50 was 1860 nM.

Work on `COc1ccc(-c2oc3ccc(N4CCOCC4)cc3c2C#CC2(O)CCCCC2)cc1` yielded an EC50 of 2110 nM.

In the case of `CC1CN(Cc2nc3c(c(=O)[nH]c(=O)n3C)n2CCCc2ccccc2)CC(C)O1` (configuration not stated), the EC50 is reported as > 15000 nM (inactive).

For `CC(=O)NC(c1ccc(C)cc1)c1cc(Cl)c2cccnc2c1O` (configuration not stated), the EC50 was 1420 nM.

Compound `CC(=O)Nc1ccc(NC(=O)CSc2nnc(NC(=O)c3ccc(Br)o3)s2)cc1` has an EC50 of 2680 nM.

`Cc1c(Cl)c([N+](=O)[O-])nn1Cc1ccc(C(=O)N/N=C\c2cc(Cl)ccc2O)o1` gave an EC50 of 1480 nM.

`c1ccc2c(Nc3nc4c(s3)CCCC4)cccc2c1` showed an EC50 of 1170 nM.

`CCCCCCCCCCOC(=O)Cn1c(COc2ccccc2OC)[n+](C)c2ccccc21` showed an EC50 of 7280 nM.

In the case of `c1ccc(-c2nnc(-c3ccccn3)nc2NC2CCCCC2)cc1`, the EC50 is reported as 2950 nM.

With `CC(C)C(NC(=O)C(c1ccccc1)c1ccccc1)c1nc2ccccc2[nH]1` (configuration not stated) the EC50 was 2960 nM.

With `O=C(NC(NC(=S)Nc1ccc(Cl)c(Cl)c1)C(Cl)(Cl)Cl)c1ccco1` (configuration not stated) the EC50 was 3410 nM.

`CCNC(=O)c1c(NC(=O)c2cc(-c3cc(C)ccc3O)n[nH]2)sc2c1CCCC2` was tested, and the EC50 was 2440 nM.

In the case of `CCCCn1c(O)c(C(CC)=Nc2ccc3c(c2)CCC3)c(=O)[nH]c1=O`, the EC50 is reported as 6010 nM.

With `COc1ccc(C(=O)Nc2nnc(-c3ccccc3)o2)cc1OC` the EC50 was 5560 nM.

`C[n+]1c(-c2ccccc2)c2cc(N)ccc2c2ccc(N)cc21` gave an EC50 of 1540 nM.

`Cc1ccnc(NS(=O)(=O)c2ccc(NC(=O)c3cc(-c4ccc(Br)cc4)nc4ccccc34)cc2)n1` showed an EC50 of 3340 nM.

In the case of `CCOC(=O)N1CCC(N2Cc3cccc(C(=O)Nc4ccc(F)cc4)c3C2=O)CC1`, the EC50 is reported as 5900 nM.

`O=C(O)C(c1ccccc1)N1C(=O)/C(=C\c2ccc(-c3cccc(Cl)c3)o2)SC1=S` (configuration not stated) gave an EC50 of 1940 nM.

Work on `O=C(NNC(=O)c1cc(-c2ccccc2)nc2ccccc12)Nc1cccc(Cl)c1` yielded an EC50 of 3870 nM.

With `COc1cc2nc(CSc3nc(-c4ccc(F)cc4)cs3)[nH]c(=O)c2cc1OC` the EC50 was > 15000 nM (inactive).

For `COC(C(=O)Nc1ccnn1C1CCN(Cc2nccs2)CC1)c1ccccc1` (configuration not stated), the EC50 was > 15000 nM (inactive).

With `Cc1c(NCc2cc(Cl)cc(Cl)c2O)c(=O)n(-c2ccccc2)n1C` the EC50 was 3390 nM.

Work on `O=C(NC(NC(=S)Nc1c(Cl)cccc1Cl)C(Cl)(Cl)Cl)OCc1ccccc1` (configuration not stated) yielded an EC50 of 2500 nM.

With `Cc1cc(NC(=O)CN2C(=O)c3ccccc3C2=O)no1` the EC50 was > 15000 nM (inactive).

Work on `CCc1nc2c3cnn(-c4cc(Cl)ccc4C)c3ncn2n1` yielded an EC50 of 12800 nM.

With `COc1c(CC=C(C)C)cc(C2CC(=O)c3c(O)cc(O)cc3O2)cc1CC=C(C)C` (configuration not stated) the EC50 was 1990 nM.

`Cc1c(C(=O)Nc2nc3ccccc3[nH]2)oc2c(Cl)cccc12` gave an EC50 of 727 nM.

`CCN(CC)c1nc(C(F)(F)F)nc2c1nnn2Cc1ccccc1` gave an EC50 of 3620 nM.

Work on `NC(=S)N/N=C/c1ccc(C23CC4CC(CC(C4)C2)C3)cc1` yielded an EC50 of 3910 nM.

Work on `C=C(C)COc1ccc(-c2n[nH]c(C)c2-c2ccccc2)c(O)c1` yielded an EC50 of 2400 nM.

With `NC(N)=N/N=C/c1ccc(N(c2ccccc2)c2ccccc2)cc1` the EC50 was 2060 nM.

In the case of `O=c1c2cc(-c3ccccc3)sc2nc2n1CCC2`, the EC50 is reported as 7670 nM.

`O=C(NC(=S)NNC(=O)c1ccccc1[N+](=O)[O-])c1ccc(Br)cc1` showed an EC50 of 2240 nM.

In the case of `CC1(C)Cc2nc3sc4c(OCc5ccccc5)ncnc4c3cc2CO1`, the EC50 is reported as 4190 nM.

`COc1cccc(N2CCN(c3ncnc4c3[nH]c3ccc(F)cc34)CC2C)c1` (configuration not stated) showed an EC50 of 6850 nM.

`CC(C)C1C(c2ccccc2)N(C)C(c2ccccc2)CC1(O)c1ccccc1` (configuration not stated) was tested, and the EC50 was 2480 nM.

Work on `Cn1c2ccccc2c(=O)c2cc(C#Cc3ccc(N)cc3)ccc21` yielded an EC50 of 1350 nM.

Compound `Cc1cc(C)c2c(c1)NC(c1cc3c(cc1Br)OCO3)C1CC=CC21` (configuration not stated) has an EC50 of 8130 nM.

For `Nc1nc(CN2CCC(Cc3ccccc3)CC2)nc(Nc2ccccc2)n1`, the EC50 was 1950 nM.

`Cc1[nH]n(-c2ccccc2)c(=O)c1N=Nc1c(O)cc(S(=O)(=O)N(C)C)c2ccccc12` gave an EC50 of 1100 nM.

With `Cc1cc(C)c(NC(=O)c2oc3ccccc3c2COc2ccccc2)c(C)c1` the EC50 was 14800 nM.

With `CSCc1cc(N(C)c2ccccc2)nc(-c2ccccn2)n1` the EC50 was 136 nM.

In the case of `COc1ccc([C@H]2Oc3cc(O)cc(O)c3C(=O)C2[C@@H]2C(=O)c3c(O)cc(O)cc3O[C@@H]2c2ccc(OC)cc2)cc1` (some centres not stated), the EC50 is reported as 1610 nM.

In the case of `Cc1ccc(-n2c(SCC(=O)Nc3ccc4c5c(cccc35)CC4)nc(O)cc2=O)cc1`, the EC50 is reported as 11900 nM.

`CCCCSc1nc(C)cc(SCC(=O)N/N=C/c2cccc(OC)c2O)n1` gave an EC50 of 2140 nM.

`CC(C)(C)c1cc(Cl)c(O)c(NC(=S)NC(=O)c2cccnc2)c1` showed an EC50 of 346 nM.

With `O=C(Nc1ccc(F)cc1)N1CCCCCC1` the EC50 was > 15000 nM (inactive).

`Oc1c(Cl)cc(Cl)cc1C(C#Cc1ccccc1)N1CCOCC1` (configuration not stated) showed an EC50 of 12200 nM.

In the case of `CSc1n[nH]c2nc3c(c(=O)n12)C1(CCCCC1)Cc1ccccc1-3`, the EC50 is reported as 10500 nM.
